Data taken from the NIST ThermoML archive (doi:10.1016/j.jct.2005.05.015).

Conditions: Liquid, Twin ebulliometer

CCCCC [pentane]
Conditions	vapor or sublimation pressure [kPa]
309.32 K	101.73
313.85 K	118.39
320.2 K	145.3
325.22 K	169.71
330.84 K	200.67
335.22 K	227.66
339.51 K	256.78
343.32 K	284.81
346.78 K	312.35
349.92 K	338.98
353.48 K	371.25
356.79 K	403.22
360.01 K	436.34
363.24 K	471.57
366.37 K	507.7
369.92 K	551.11
377.19 K	648.59
384.19 K	754.18
392.52 K	895.85
397.8 K	995.29
402.59 K	1092.4
406.87 K	1185.1
412.57 K	1317.5
416.13 K	1405.5
417.87 K	1450
420.09 K	1508.6
423.75 K	1608.9
424.62 K	1633.2
427.09 K	1704.4
430.44 K	1804.8
430.68 K	1812
433.61 K	1903.7
437.57 K	2033.2
440.81 K	2143.7
443.59 K	2242.6
446.65 K	2355.2
449.18 K	2451.9
451.9 K	2559.3
451.99 K	2562.8
454.33 K	2658.6
455.99 K	2727.7
